In article PMC4583449, “Characterisation of (R)-2-(2-Fluorobiphenyl-4-yl)-N-(3-Methylpyridin-2-yl)Propanamide as a Dual Fatty Acid Amide Hydrolase: Cyclooxygenase Inhibitor” (PLoS ONE, 2015):
“And” between values parts separate entries of the source, which are not always exact repeats. Equal values may be shown once. Read-outs that look alike come from different tables or passages of the source.

Assays:
ovine COX-1 = target: T1, ovine COX-1 (Ovis aries, UniProt P05979); test: COX-1 inhibition, oxygraphic method (oxygen electrode); assay type: biochemical; settings: 10 μM arachidonic acid; no preincubation phase; approximate, from initial velocities
T1 construct: purchased Cayman Chemical Co. 60100
T1 sequence (P05979 25-600): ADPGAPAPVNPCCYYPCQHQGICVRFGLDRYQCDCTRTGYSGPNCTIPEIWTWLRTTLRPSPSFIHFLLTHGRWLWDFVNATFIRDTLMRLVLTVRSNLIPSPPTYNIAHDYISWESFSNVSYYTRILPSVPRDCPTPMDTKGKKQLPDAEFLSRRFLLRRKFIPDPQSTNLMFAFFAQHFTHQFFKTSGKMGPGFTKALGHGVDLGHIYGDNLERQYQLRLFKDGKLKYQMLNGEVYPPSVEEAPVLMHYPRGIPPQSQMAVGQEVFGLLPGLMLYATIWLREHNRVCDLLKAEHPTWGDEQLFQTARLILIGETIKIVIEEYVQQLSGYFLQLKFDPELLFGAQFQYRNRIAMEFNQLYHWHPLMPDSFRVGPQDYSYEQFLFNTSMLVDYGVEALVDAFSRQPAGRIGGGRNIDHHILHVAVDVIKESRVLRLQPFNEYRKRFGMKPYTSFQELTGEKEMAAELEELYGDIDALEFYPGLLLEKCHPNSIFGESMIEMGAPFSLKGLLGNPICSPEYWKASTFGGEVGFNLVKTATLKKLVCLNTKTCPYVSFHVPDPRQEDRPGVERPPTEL
Description: (§1) The assay was performed according to Meade et al. with minor modifications. An oxygen electrode chamber with integral stirring (Oxygraph System, Hansatech Instruments, King´s Lynn, U.K.) was calibrated daily to ambient temperature and air pressure. The assay buffer contained 0.1 M Tris-HCl buffer pH 7.4, 1 μM haematin, 2 mM phenol, 5 mM EDTA, 10 μM substrate (arachidonic acid or 2-AG) (final assay volume was 2 ml). After addition of (R)- or (S)-Flu-AM1 dissolved in ethanol (final assay concentration 1%), a baseline was established for 5 min before initiation of reaction by addition of 200 units ovine COX-1 or human recombinant COX-2. The change in oxygen consumption as a measurement of enzyme activity was monitored for approximately 5 min.

human recombinant COX-2 = target: T2, human recombinant COX-2 (Homo sapiens, UniProt P35354); test: COX-2 inhibition, oxygraphic method (oxygen electrode); assay type: biochemical; settings: no preincubation phase, approximate, from initial velocities
T2 construct: purchased Cayman Chemical Co. 60122
T2 sequence (P35354 18-604): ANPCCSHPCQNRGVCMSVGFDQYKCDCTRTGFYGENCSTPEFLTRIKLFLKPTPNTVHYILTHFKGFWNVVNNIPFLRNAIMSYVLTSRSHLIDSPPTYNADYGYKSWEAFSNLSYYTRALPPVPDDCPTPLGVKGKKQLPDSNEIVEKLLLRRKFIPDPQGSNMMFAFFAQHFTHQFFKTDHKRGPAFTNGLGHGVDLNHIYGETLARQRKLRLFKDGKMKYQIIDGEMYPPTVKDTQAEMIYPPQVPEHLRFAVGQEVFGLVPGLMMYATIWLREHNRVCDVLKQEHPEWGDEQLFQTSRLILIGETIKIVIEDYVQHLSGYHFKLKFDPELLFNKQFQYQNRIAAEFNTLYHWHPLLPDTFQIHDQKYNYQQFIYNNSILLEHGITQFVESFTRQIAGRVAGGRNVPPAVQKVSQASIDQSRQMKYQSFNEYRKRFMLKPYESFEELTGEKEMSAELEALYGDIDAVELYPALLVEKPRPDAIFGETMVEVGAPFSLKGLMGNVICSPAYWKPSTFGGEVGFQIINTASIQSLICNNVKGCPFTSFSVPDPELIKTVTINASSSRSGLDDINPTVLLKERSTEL
Description: as §1

With Cc1cccnc1NC(=O)[C@H](C)c1ccc(-c2ccccc2)c(F)c1 [(R)-Flu-AM1, (R)-2-(2-Fluorobiphenyl-4-yl)-N-(3-Methylpyridin-2-yl)Propanamide] the IC50 (ovine COX-1) was 6 µM and ~6 µM, the IC50 (human recombinant COX-2; 10 μM 2-AG, read-out: IC50 COX-2 (2-AG)) was 1 µM and ~1 µM and the IC50 (human recombinant COX-2; 10 μM arachidonic acid, read-out: IC50 COX-2 (arachidonic acid)) was 20 µM and ~20 µM.
